{"source": "patent US20160230227A1", "about": "“METHODS OF TREATING ALZHEIMER'S DISEASE” (THE NEW YORK STEM CELL FOUNDATION, priority 2012, published 2016)", "key": {"γ-secretase": {"molecular_target": "T1, γ-secretase (Homo sapiens, UniProt P49768)", "T1 construct": "endogenous in cells", "test": "Aβ production in conditioned media by ELISA", "assay_type": "cell-based", "settings": "10 μM, control and PS1 cells"}, "[1]": {"settings": "cited from earlier work"}, "Na+ channels": {"tested_on": "Na+ channels", "assay_type": "cell-based, human"}, "7889O neurons": {"tested_on": "7889O neurons", "assay_type": "cell-based, human"}, "[2]": {"tested_on": "adult SVZ neural progenitor cells", "test": "Primary neurosphere formation of adult SVZ progenitors", "assay_type": "cell-based", "settings": "eight-week old mice, in the presence of EGF and FGF, 10 days in vitro, p=0.04", "experimental": "(§1) This supports a potential pro-neurogenic role for NDP in adult neurogenesis.\nAdult FVB/N mice were killed by cervical dislocation (n=3 per preparation) and their brains removed and placed into Pipes buffer (20 mM Pipes, 25 mM glucose, 0.12M NaCl, 0.5 mM KCl [ph 7.4]). The lateral walls of the lateral ventricles were dissected, collected in Pipes buffer and incubated in a mixture containing 1.2 mL of activated papain and 8.8 ml of Pipes buffer. Papain was activated 20 min in advance by placing 3 mg of papain (Worthington Biochemical) in 1 ml of 1.1 mM EDTA, 5.5 mM cysteine HCl. The pieces of tissue were incubated in papain solution at 37° C. on a rocking platform for 10 min and collected by centrifugation at 1300 rpm for 5 min. The cellular pellet was resuspended in 1 ml of DMEM-F12 (GIBCO) containing 0.7 mg of ovomucoid inhibitor and 1 mg of DNase. The cells were dissociated and neural precursor cells were separated from differentiated cells, myelin and extracellular matrix using density gradient separation by centrifugation step with 22% Percoll. […] The cells were counted and plated in 96well-low attachment plate (Corning) (1.5×10^5/mL) in the same medium containing 10 ng/mL of EGF receptor grade (Millipore) and 10 ng/mL human bFGF (Invitrogen). […] The numbers of neurospheres were counted for six 40× fields/well after 10 days in vitro. […]"}, "human iPSC-derived NPCs": {"tested_on": "human iPSC-derived NPCs", "test": "Proliferation of iPSC-derived NPCs (ki67 staining)", "assay_type": "cell-based", "settings": "d14 NPCs; data not shown", "text": "as §1"}}, "data": [{"compound": "C[C@H](NC(=O)Cc1cc(F)cc(F)c1)C(=O)N[C@H](C(=O)OC(C)(C)C)c1ccccc1", "note": "[DAPT]", "values": [{"measurement": "Aβ production", "setting": "γ-secretase", "value": "sufficient to block"}, {"measurement": "Aβ production", "setting": "γ-secretase; listed as DapT", "value": "blocks"}]}, {"compound": "CC12CC3CC(C)(C1)CC(N)(C3)C2", "note": "[Memantine]", "values": [{"measurement": "reported adverse events", "setting": "[1]; in vivo", "value": "infrequent and mild"}, {"measurement": "efficacy in treatment", "setting": "[1]; moderate to severe Alzheimer's disease", "value": "moderately efficacious"}]}, {"compound": "NC1=N[C@H](O)[C@H]2[C@H]3O[C@]4(O)O[C@@H]([C@@H](O)[C@@]2(N1)[C@@H]4O)[C@]3(O)CO", "note": "[TTX, tetrodotoxin]", "values": [{"measurement": "action potentials", "setting": "Na+ channels", "value": "blocked"}, {"measurement": "inward currents", "setting": "Na+ channels", "value": "blocked"}, {"measurement": "kinetics of remaining Ca2+ transients", "setting": "7889O neurons", "value": "generally slower"}]}, {"compound": "recombinant norrin: recombinant Norrin protein (R&D systems), product of NDP; secreted molecule activating canonical Wnt signaling via Frizzled-4", "values": [{"measurement": "proliferation as measured by primary neurosphere formation", "setting": "[2]", "value": "increased proliferation"}, {"measurement": "proliferation as measured by primary neurosphere formation", "setting": "[2]; listed as recombinant Norrin protein", "value": "induces proliferation"}, {"measurement": "proliferation (ki67 staining)", "setting": "human iPSC-derived NPCs", "value": "did not show differences in proliferation"}]}, {"compound": "tetraethylammonium [TEA]", "values": [{"measurement": "long lasting outward current after the fast inward current", "setting": "K+ channels", "value": "cancelled"}]}]}
